Data taken from US12077503B2, “Substituted cyclic amides and their use as herbicides” (FMC CORPORATION, priority 2015, dated 2024).

Assays:
Assay type in all cases: in vivo
[1] = tested on: ryegrass, Italian (Italian ryegrass, Lolium multiflorum); assay: Test A preemergence; conditions: Lolium multiflorum, pre-emergence, 240 h, 0 to 100 scale (0 no effect, 100 complete control), read-out: Plant response rating, Ryegrass, Italian
Outline: (§1)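 Each rating is a visual injury score from 0 to 100 given about 10 d after treatment, judged against untreated controls kept alongside in the greenhouse. In loam soil–sand blend, seeds got a preemergence directed soil spray, while postemergence plants were 2 to 10 cm tall at spraying.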

[2] = tested on: ragweed (common ragweed, Ambrosia elatior); assay: Test A preemergence; conditions: Ambrosia artemisiifolia, pre-emergence, 240 h, 0 to 100 scale (0 no effect, 100 complete control), read-out: Plant response rating, Ragweed
Outline: as §1

[3] = tested on: barnyardgrass (Echinochloa crus-galli); assay: Test A preemergence; conditions: Echinochloa crus-galli, pre-emergence, 240 h, 0 to 100 scale (0 no effect, 100 complete control), read-out: Plant response rating, Barnyardgrass
Outline: as §1

[4] = tested on: Kochia (Kochia scoparia); assay: Test A preemergence; conditions: Bassia scoparia, pre-emergence, 240 h, 0 to 100 scale (0 no effect, 100 complete control), read-out: Plant response rating, Kochia
Outline: as §1

[5] = tested on: giant foxtail (Setaria faberii); assay: Test A preemergence; conditions: Setaria faberi, pre-emergence, 240 h, 0 to 100 scale (0 no effect, 100 complete control), read-out: Plant response rating, Foxtail, Giant
Outline: as §1

[6] = tested on: pigweed (Amaranthus retroflexus); assay: Test A preemergence; conditions: Amaranthus retroflexus, pre-emergence, 240 h, 0 to 100 scale (0 no effect, 100 complete control), read-out: Plant response rating, Pigweed
[7] = tested on: ragweed (common ragweed, Ambrosia elatior); assay: Test A postemergence; conditions: Ambrosia artemisiifolia, post-emergence, 240 h, Postemergence
Outline: as §1

[8] = tested on: barnyardgrass (Echinochloa crus-galli); assay: Test A postemergence; conditions: Echinochloa crus-galli, post-emergence, 240 h, Postemergence
Outline: as §1

[9] = tested on: corn (Zea mays); assay: Test A postemergence; conditions: Zea mays, post-emergence, 240 h, Postemergence
Outline: as §1

[10] = tested on: Galium (catchweed bedstraw, Galium aparine); assay: Test A postemergence; conditions: Galium, post-emergence, 240 h, Postemergence
Outline: as §1

[11] = tested on: Kochia (Kochia scoparia); assay: Test A postemergence; conditions: Bassia scoparia, post-emergence, 240 h, Postemergence
Outline: as §1

[12] = tested on: wheat (Triticum aestivum); assay: Test A postemergence; conditions: Triticum aestivum, post-emergence, 240 h, Postemergence
Outline: as §1

[13] = tested on: giant foxtail (Setaria faberii); assay: Test A postemergence; conditions: Setaria faberi, post-emergence, 240 h, Postemergence
Outline: as §1

[14] = tested on: blackgrass (Alopecurus myosuroides); assay: Test A postemergence; conditions: Alopecurus myosuroides, post-emergence, 240 h, Postemergence
Outline: as §1

[15] = tested on: pigweed (Amaranthus retroflexus); assay: Test A postemergence; conditions: Amaranthus retroflexus, post-emergence, 240 h, Postemergence
Outline: as §1

`CN1CC[C@H](c2cccc(C(F)(F)F)c2)[C@@H](C(=O)Nc2cccc(F)c2F)C1=O` [Compound 1330] gave a pest or weed control at 500 g/ha ([1]; 500 g ai/ha, preemergence) of 50%, a pest or weed control at 125 g/ha ([1]; Preemergence, 125 g ai/ha) of 50% and a pest or weed control at 500 g/ha ([2]; 500 g ai/ha, preemergence) of 50%. It also gave a pest or weed control at 125 g/ha ([2]; Preemergence, 125 g ai/ha) of 0%, a pest or weed control at 500 g/ha ([3]; 500 g ai/ha, preemergence) of 90% and a pest or weed control at 125 g/ha ([3]; Preemergence, 125 g ai/ha) of 90%. For the same compound, the pest or weed control at 500 g/ha ([4]; 500 g ai/ha, preemergence) was 90%, the pest or weed control at 125 g/ha ([4]; Preemergence, 125 g ai/ha) was 20% and the pest or weed control at 500 g/ha ([5]; 500 g ai/ha, preemergence) was 90%. The pest or weed control at 125 g/ha ([5]; Preemergence, 125 g ai/ha) was 90%, the pest or weed control at 500 g/ha ([6]; 500 g ai/ha, preemergence) was 0% and the pest or weed control at 125 g/ha ([6]; Preemergence, 125 g ai/ha) was 0%. It also gave a pest or weed control at 125 g/ha ([7]; 125 g ai/ha, visual rating about 10 d after treatment, read-out: Ragweed plant response rating (0 to 100 scale)) of 0%, a pest or weed control at 500 g/ha ([7]; 500 g ai/ha, visual injury, 0 to 100 scale (0 no effect, 100 complete control), approx. 10 d, read-out: Plant response rating, Ragweed) of 20% and a pest or weed control at 125 g/ha ([8]; 125 g ai/ha, visual rating about 10 d after treatment, read-out: Barnyardgrass plant response rating (0 to 100 scale, 0 no effect, 100 complete control)) of 90%. It also gave a pest or weed control at 500 g/ha ([8]; 500 g ai/ha, visual injury, 0 to 100 scale (0 no effect, 100 complete control), approx. 10 d, read-out: Plant response rating, Barnyardgrass) of 90%, a plant injury at 125 g/ha ([9]; 125 g ai/ha, visual rating about 10 d after treatment, read-out: Corn plant response rating (0 to 100 scale)) of 90% and a Corn plant response rating (crop injury, 0 = no effect, 100 = complete kill) at 500 g/ha ([9]; 500 g ai/ha, visual injury, 0 to 100 scale (0 no effect, 100 complete control), approx. 10 d) of 0%. For the same compound, the pest or weed control at 125 g/ha ([10]; 125 g ai/ha, visual rating about 10 d after treatment, read-out: Galium plant response rating (0 to 100 scale)) was 30%, the pest or weed control at 500 g/ha ([10]; 500 g ai/ha, visual injury, 0 to 100 scale (0 no effect, 100 complete control), approx. 10 d, read-out: Plant response rating, Galium) was 30% and the pest or weed control at 125 g/ha ([11]; 125 g ai/ha, visual rating about 10 d after treatment, read-out: Kochia plant response rating (0 to 100 scale)) was 0%. The pest or weed control at 500 g/ha ([11]; 500 g ai/ha, visual injury, 0 to 100 scale (0 no effect, 100 complete control), approx. 10 d, read-out: Plant response rating, Kochia) was 20%, the plant injury at 125 g/ha ([12]; 125 g ai/ha, visual rating about 10 d after treatment, read-out: Wheat plant response rating (0 to 100 scale)) was 50% and the plant injury at 500 g/ha ([12]; 500 g ai/ha, visual injury, 0 to 100 scale (0 no effect, 100 complete control), approx. 10 d, read-out: Plant response rating, Wheat) was 70%. It also gave a pest or weed control at 125 g/ha ([13]; 125 g ai/ha, visual rating about 10 d after treatment, read-out: Foxtail, Giant plant response rating (0 to 100 scale)) of 90%, a pest or weed control at 500 g/ha ([13]; 500 g ai/ha, visual injury, 0 to 100 scale (0 no effect, 100 complete control), approx. 10 d, read-out: Plant response rating, Foxtail, Giant) of 90% and a pest or weed control at 125 g/ha ([14]; 125 g ai/ha, visual rating about 10 d after treatment, read-out: Blackgrass plant response rating (0 to 100 scale)) of 50%. It also gave a pest or weed control at 500 g/ha ([14]; 500 g ai/ha, visual injury, 0 to 100 scale (0 no effect, 100 complete control), approx. 10 d, read-out: Plant response rating, Blackgrass) of 70%, a pest or weed control at 125 g/ha ([15]; 125 g ai/ha, visual rating about 10 d after treatment, read-out: Pigweed plant response rating (0 to 100 scale)) of 0% and a pest or weed control at 500 g/ha ([15]; 500 g ai/ha, visual injury, 0 to 100 scale (0 no effect, 100 complete control), approx. 10 d, read-out: Plant response rating, Pigweed) of 0%.
